Assays:
CYP3A4 = CYP3A4 (Homo sapiens, UniProt P08684); experiment: CYP3A4 substrate and inhibition; type: in vitro ADME
Description: (§1) Exposure increased more than dose-proportionally at low doses. Variability in exposure was high. • In vitro plasma protein binding was between 79.6% and 94.2% in animals and humans. Volume of distribution after intravenous dosing was high. […] Main metabolic pathways were oxygenation, hydrogenation, dehydrogenation, dealkylation, acetylation, glucuronidation, and/or glutathione conjugation. • In rats, >80% of drug-related material was found in feces, 11% to 20% in bile, and <4% in urine. […] There were no effects on embryofetal development up to 1 mg/kg/dose in rats and 30 mg/kg/dose in rabbits.

[1] = respiratory and central nervous system safety pharmacology in rats; details: rat, in vivo
Description: as §1

monkey TLR7 = biological target: T1, monkey TLR7 (Macaca fascicularis, UniProt B3Y652); experiment: activation of monkey TLR7 (LEC); type: cell-based
T1 sequence (B3Y652 1-1049): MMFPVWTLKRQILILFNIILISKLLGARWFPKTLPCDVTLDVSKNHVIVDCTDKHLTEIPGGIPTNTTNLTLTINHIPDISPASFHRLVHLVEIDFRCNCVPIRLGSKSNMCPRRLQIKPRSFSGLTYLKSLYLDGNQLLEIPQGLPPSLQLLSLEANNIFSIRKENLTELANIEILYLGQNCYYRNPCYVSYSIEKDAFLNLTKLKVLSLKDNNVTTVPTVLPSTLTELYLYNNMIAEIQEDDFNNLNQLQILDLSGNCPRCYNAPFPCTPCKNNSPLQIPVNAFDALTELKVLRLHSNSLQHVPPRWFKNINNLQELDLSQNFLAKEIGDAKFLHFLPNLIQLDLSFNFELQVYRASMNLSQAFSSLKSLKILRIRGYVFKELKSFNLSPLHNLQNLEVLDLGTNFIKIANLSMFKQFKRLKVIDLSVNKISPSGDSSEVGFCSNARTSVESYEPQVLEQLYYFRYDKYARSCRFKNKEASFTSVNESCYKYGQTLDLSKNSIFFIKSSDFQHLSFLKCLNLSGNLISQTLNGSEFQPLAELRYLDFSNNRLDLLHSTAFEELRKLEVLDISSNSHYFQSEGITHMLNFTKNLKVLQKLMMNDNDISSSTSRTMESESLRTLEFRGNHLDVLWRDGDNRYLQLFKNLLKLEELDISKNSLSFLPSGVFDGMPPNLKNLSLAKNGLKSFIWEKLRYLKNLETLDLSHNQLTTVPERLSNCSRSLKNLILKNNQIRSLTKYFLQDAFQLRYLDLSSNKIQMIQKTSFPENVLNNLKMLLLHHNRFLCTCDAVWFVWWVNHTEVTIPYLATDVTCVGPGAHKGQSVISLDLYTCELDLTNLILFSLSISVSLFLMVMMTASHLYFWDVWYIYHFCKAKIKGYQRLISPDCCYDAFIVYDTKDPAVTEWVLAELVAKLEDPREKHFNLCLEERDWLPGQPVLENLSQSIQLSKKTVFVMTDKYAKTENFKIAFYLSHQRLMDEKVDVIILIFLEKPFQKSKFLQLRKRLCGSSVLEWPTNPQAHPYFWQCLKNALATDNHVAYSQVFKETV
Description: as §1

[2] = 14-week rat toxicity study; type: in vivo; details: 5 mg/kg biw
Description: as §1

genotoxic potential = experiment: genotoxic potential
Description: as §1

Sequence of CYP3A4 (P08684 whole entry): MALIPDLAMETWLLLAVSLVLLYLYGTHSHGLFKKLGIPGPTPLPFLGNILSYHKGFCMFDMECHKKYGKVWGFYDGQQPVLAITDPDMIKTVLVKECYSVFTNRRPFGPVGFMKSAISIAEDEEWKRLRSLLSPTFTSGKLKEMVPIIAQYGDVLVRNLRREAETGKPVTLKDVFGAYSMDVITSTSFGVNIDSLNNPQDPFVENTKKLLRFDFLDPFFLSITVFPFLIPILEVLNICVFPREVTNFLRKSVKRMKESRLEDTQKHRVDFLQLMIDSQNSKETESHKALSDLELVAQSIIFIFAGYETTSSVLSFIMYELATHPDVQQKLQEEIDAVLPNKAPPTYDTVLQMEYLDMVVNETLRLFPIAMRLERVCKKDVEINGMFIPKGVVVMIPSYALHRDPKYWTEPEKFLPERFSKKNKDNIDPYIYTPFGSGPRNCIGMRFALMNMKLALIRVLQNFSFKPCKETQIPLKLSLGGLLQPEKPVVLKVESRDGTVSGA

In the case of `CCCCOc1nc(N)c2[nH]cc(Cc3ccc(CN4CCCC4)cc3)c2n1` [Compound 4], the CYP3A4 substrate (CYP3A4) is reported as “substrate”, the IC50 (CYP3A4) is reported as 590 nM and the “effects on respiratory or central nervous system parameters” value [1] is reported as “no relevant effects”. The “lowest effective concentration (LEC) for activation of monkey TLR7” value (monkey TLR7) was < 119 nM, the brain inflammation [2] was “Brain inflammation occurred” and the genotoxic potential (genotoxic potential) was “free of genotoxic potential”.

— patent US12263172B2, “Toll-like receptor agonists for use in the treatment of hepatitis b” (priority 2019, dated 2025)
